Reference: US8445466B2, “Stable aqueous compositions comprising amide-protected bioactive creatine species and uses thereof” (priority 2010, dated 2013)

Experiments:
[1] = Conversion of creatine to creatinine in aqueous solutions; format: physicochemical; details: aqueous solution 0.250 mg/mL
[2] = system: patients with idiopathic PD; details: 20 g/d for the first 5 days and 5 g/d thereafter, 24 sessions of resistance training; cited from earlier work
[3] = Stability of creatyl-L-glutamine formulations on storage in glass vials, HPLC assay of C-L-G and creatinine; format: physicochemical
Method: Specifically exemplified herein are three different formulations prepared using stable creatyl-L-glutamine (C-L-G) at a concentration of 1.00 mg/ml between pH 3.0 to 7.0. These formulations are described below.
The above described formulations were stored in glass vials at room temperature (25° C., 77° F.), at refrigerator temperature (4° C., 39° F.) and at elevated temperature (40° C., 104° F.) in vials. These samples were assayed by HPLC at periodic intervals for minimum of 60 days for creatyl-L-glutamine (C-L-G) and creatinine (degradation product of creatine) content. The % recovery results are presented below.

[4] = system: small cohorts of athletes; details: oral; short term (5 days), medium term (9 weeks) and long term (up to 5 years); cited from earlier work
[5] = system: Division IA college football players; details: up to 21-months; 15.75 g/day for five days, average 5 g/day thereafter; cited from earlier work
[6] = system: highly trained adolescent (mean age 16) fin swimmers; details: five days of supplementation; cited from earlier work
[7] = system: young adult, vegetarian subjects; details: oral, 5 grams daily for six weeks, 45 subjects; cited from earlier work
[8] = system: patients with McArdle disease; details: cited from earlier work
[9] = cited from earlier work
[10] = cited from earlier work; remark: listed apart in the source
[11] = system: person with myasthenia gravis; details: 5 grams daily with resistance training 3× per week for 15 weeks; cited from earlier work

**Q.** What does the source list for `CN(CC(=O)O)C(=N)N.O` [Creatine Monohydrate, creatine monohydrate]?
**A.** COP Assay ([1]; pH 3.0, 25 C.°, 39 Days): 0.072 mg/mL; Creatinine ([1]; pH 3.0, 25 C.°, 39 Days): 0.154 mg/mL; COP Assay ([1]; pH 3.0, 25 C.°, 3 day): 0.219 mg/ml mg/mL; Creatinine ([1]; pH 3.0, 25 C.°, 3 day): 0.026 mg/mL; COP Assay ([1]; pH 3.0, 25 C.°, 10 days): 0.214 mg/mL; Creatinine ([1]; pH 3.0, 25 C.°, 10 days): 0.072 mg/ml mg/mL; COP Assay ([1]; pH 3.0, 25 C.°, 21 days): 0.151 mg/mL; Creatinine ([1]; pH 3.0, 25 C.°, 21 days): 0.111 mg/mL; COP Assay ([1]; pH 3.0, 25 C.°, INITIAL): 0.245 mg/mL; Creatinine ([1]; pH 3.0, 25 C.°, INITIAL): 0.000 mg/mL; COP Assay ([1]; pH 3.0, 40 C.°, 39 Days): 0.030 mg/mL; Creatinine ([1]; pH 3.0, 40 C.°, 39 Days): 0.186 mg/mL; COP Assay ([1]; pH 3.0, 40 C.°, 3 day): 0.091 mg/ml mg/mL; Creatinine ([1]; pH 3.0, 40 C.°, 3 day): 0.125 mg/mL; COP Assay ([1]; pH 3.0, 40 C.°, 10 days): 0.036 mg/mL; Creatinine ([1]; pH 3.0, 40 C.°, 10 days): 0.177 mg/ml mg/mL; COP Assay ([1]; pH 3.0, 40 C.°, 21 days): 0.029 mg/mL; Creatinine ([1]; pH 3.0, 40 C.°, 21 days): 0.186 mg/mL; COP Assay ([1]; pH 3.0, 40 C.°, INITIAL): 0.245 mg/mL; Creatinine ([1]; pH 3.0, 40 C.°, INITIAL): 0.000 mg/mL; COP Assay ([1]; pH 7.0, 40 C.°, 31 Days): 0.251 mg/mL; Creatinine ([1]; pH 7.0, 40 C.°, 31 Days): 0.068 mg/mL; COP Assay ([1]; pH 7.0, 40 C.°, 3 day): 0.242 mg/ml mg/mL; Creatinine ([1]; pH 7.0, 40 C.°, 3 day): 0.008 mg/mL; COP Assay ([1]; pH 7.0, 40 C.°, INITIAL): 0.257 mg/mL; Creatinine ([1]; pH 7.0, 40 C.°, INITIAL): 0.000 mg/mL; biceps curl strength [2]: significantly improved; chest press strength [2]: significantly improved

**Q.** With `CN(CC(=O)N[C@@H](CCC(N)=O)C(=O)O)C(=N)N` [creatyl-L-glutamine] as the molecule, how does the “time composition is stable” value ([3]; elevated temperature (40° C., 104° F.)) read?
**A.** more than 30 days

**Q.** And the “time aqueous solutions remain stable” value ([3]; refrigerator temperature (4° C., 39° F.))?
**A.** more than 90 days

**Q.** What about the “time aqueous solutions remain stable” value ([3]; room temperature (25° C., 77° F.)) of the same molecule?
**A.** more than 90 days

**Q.** For “disodium creatine phosphate tetrahydrate”, which “Creatine Monohydrate” value ([1]; pH 3.0, 25 C.°, 39 Days) is on record?
**A.** 0.031 mg/mL

**Q.** And the Creatinine ([1]; pH 3.0, 25 C.°, 39 Days)?
**A.** 0.069 mg/mL

**Q.** And the “Creatine Monohydrate” value ([1]; pH 3.0, 25 C.°, 3 day)?
**A.** 0.095 mg/mL

**Q.** And the Creatinine ([1]; pH 3.0, 25 C.°, 3 day)?
**A.** 0.014 mg/mL

**Q.** What about the “Creatine Monohydrate” value ([1]; pH 3.0, 25 C.°, 10 days) of the same molecule?
**A.** 0.092 mg/mL

**Q.** What about the Creatinine ([1]; pH 3.0, 25 C.°, 10 days) of the same molecule?
**A.** 0.034 mg/mL

**Q.** What about the “Creatine Monohydrate” value ([1]; pH 3.0, 25 C.°, 21 days) of the same molecule?
**A.** 0.065 mg/mL

**Q.** And the Creatinine ([1]; pH 3.0, 25 C.°, 21 days)?
**A.** 0.050 mg/ml mg/mL

**Q.** What about the “Creatine Monohydrate” value ([1]; pH 3.0, 25 C.°, INITIAL) of the same molecule?
**A.** 0.000 mg/ml mg/mL

**Q.** What about the Creatinine ([1]; pH 3.0, 25 C.°, INITIAL) of the same molecule?
**A.** 0.000 mg/mL

**Q.** What about the “Creatine Monohydrate” value ([1]; pH 3.0, 40 C.°, 39 Days) of the same molecule?
**A.** 0.012 mg/ml mg/mL

**Q.** And the Creatinine ([1]; pH 3.0, 40 C.°, 39 Days)?
**A.** 0.081 mg/mL

**Q.** What about the “Creatine Monohydrate” value ([1]; pH 3.0, 40 C.°, 3 day) of the same molecule?
**A.** 0.042 mg/mL

**Q.** And the Creatinine ([1]; pH 3.0, 40 C.°, 3 day)?
**A.** 0.054 mg/mL

**Q.** And the “Creatine Monohydrate” value ([1]; pH 3.0, 40 C.°, 10 days)?
**A.** 0.017 mg/mL

**Q.** What about the Creatinine ([1]; pH 3.0, 40 C.°, 10 days) of the same molecule?
**A.** 0.086 mg/mL

**Q.** And the “Creatine Monohydrate” value ([1]; pH 3.0, 40 C.°, 21 days)?
**A.** 0.011 mg/mL

**Q.** What about the Creatinine ([1]; pH 3.0, 40 C.°, 21 days) of the same molecule?
**A.** 0.080 mg/ml mg/mL

**Q.** And the “Creatine Monohydrate” value ([1]; pH 3.0, 40 C.°, INITIAL)?
**A.** 0.004 mg/mL

**Q.** What about the Creatinine ([1]; pH 3.0, 40 C.°, INITIAL) of the same molecule?
**A.** 0.000 mg/mL

**Q.** What about the “Creatine Monohydrate” value ([1]; pH 7.0, 25 C.°, 39 Days) of the same molecule?
**A.** 0.089 mg/mL

**Q.** And the Creatinine ([1]; pH 7.0, 25 C.°, 39 Days)?
**A.** 0.000 mg/mL

**Q.** What about the Creatinine ([1]; pH 7.0, 25 C.°, 3 day) of the same molecule?
**A.** 0.000 mg/mL

**Q.** What about the “Creatine Monohydrate” value ([1]; pH 7.0, 25 C.°, 10 days) of the same molecule?
**A.** 0.041 mg/mL

**Q.** And the Creatinine ([1]; pH 7.0, 25 C.°, 10 days)?
**A.** 0.000 mg/mL

**Q.** What about the “Creatine Monohydrate” value ([1]; pH 7.0, 25 C.°, 21 days) of the same molecule?
**A.** 0.069 mg/mL

**Q.** What about the Creatinine ([1]; pH 7.0, 25 C.°, 21 days) of the same molecule?
**A.** 0.000 mg/ml mg/mL

**Q.** And the “Creatine Monohydrate” value ([1]; pH 7.0, 25 C.°, INITIAL)?
**A.** 0.00 mg/mL

**Q.** And the Creatinine ([1]; pH 7.0, 25 C.°, INITIAL)?
**A.** 0.000 mg/mL

**Q.** What about the “Creatine Monohydrate” value ([1]; pH 7.0, 40 C.°, 39 Days) of the same molecule?
**A.** 0.108 mg/mL

**Q.** What about the Creatinine ([1]; pH 7.0, 40 C.°, 39 Days) of the same molecule?
**A.** 0.030 mg/mL

**Q.** And the “Creatine Monohydrate” value ([1]; pH 7.0, 40 C.°, 3 day)?
**A.** 0.042 mg/mL

**Q.** What about the Creatinine ([1]; pH 7.0, 40 C.°, 3 day) of the same molecule?
**A.** 0.004 mg/mL

**Q.** What about the “Creatine Monohydrate” value ([1]; pH 7.0, 40 C.°, 10 days) of the same molecule?
**A.** 0.114 mg/mL

**Q.** What about the Creatinine ([1]; pH 7.0, 40 C.°, 10 days) of the same molecule?
**A.** 0.012 mg/mL

**Q.** And the “Creatine Monohydrate” value ([1]; pH 7.0, 40 C.°, 21 days)?
**A.** 0.122 mg/mL

**Q.** What about the Creatinine ([1]; pH 7.0, 40 C.°, 21 days) of the same molecule?
**A.** 0.020 mg/ml mg/mL

**Q.** What about the “Creatine Monohydrate” value ([1]; pH 7.0, 40 C.°, INITIAL) of the same molecule?
**A.** 0.00 mg/mL

**Q.** What about the Creatinine ([1]; pH 7.0, 40 C.°, INITIAL) of the same molecule?
**A.** 0.000 mg/mL

**Q.** Which “adverse effects on renal function” value [4] does the source give for `CN(CC(=O)O)C(=N)N` [creatine, 2-(carbamimidoyl-methyl-amino) acetic acid] here?
**A.** No adverse effects

**Q.** What about the “adverse effect in long-term supplementation” value [5] of the same molecule?
**A.** No adverse effect

**Q.** What about the dynamic strength [6] of the same molecule?
**A.** enhances

**Q.** And the “performance in consecutive maximal swims” value [6]?
**A.** improves

**Q.** And the “intelligence (Raven's Advanced Progressive Matrices)” value [7]?
**A.** significantly improves

**Q.** What about the “working memory (backward digit span)” value [7] of the same molecule?
**A.** significantly improves

**Q.** And the skeletal muscle function [8]?
**A.** improves

**Q.** What about the “average increase in muscle strength, greater than following placebo ingestion” value ([9]; 22 published studies, during resistance training) of the same molecule?
**A.** 8%

**Q.** And the “average increase in muscle strength following creatine supplementation during resistance training” value ([9]; 22 published studies, placebo 12%)?
**A.** 20%

**Q.** What about the “average increase in weightlifting performance, greater than following placebo ingestion” value ([9]; during resistance training) of the same molecule?
**A.** 14%

**Q.** What about the “average increase in weightlifting performance (maximal repetitions at a given percent of maximal strength)” value ([9]; during resistance training, placebo 12%) of the same molecule?
**A.** 26%

**Q.** And the adverse health effect ([9]; short- or long-term creatine supplementations)?
**A.** no adverse health effect

**Q.** What about the “degradation in the GI tract into creatinine, estimated rate” value ([10]; GI tract) of the same molecule?
**A.** ~0.1 g of a 5 g dose per hour

**Q.** And the “non-enzymatic conversion into creatinine” value ([10]; typical 70 kg individual)?
**A.** approximately 1.7 % daily

**Q.** And the improved peak strength [11]?
**A.** up to 37%

**Q.** And the “increase in body weight” value [11]?
**A.** 7%

**Q.** What about the “increase in fat free mass” value [11] of the same molecule?
**A.** 4%
